Bounds are passed on as bounds.

One series has as its system SF-295. As to the kind of experiment: SRB cytotoxicity screening assay (CNS Cancer).
Another series concerns ACHN. The series is described as follows: SRB cytotoxicity screening assay (Renal Cancer).
Another series deals with MDA-MB-435. As to the kind of experiment: SRB cytotoxicity screening assay (Breast Cancer).
Another series has as its system SK-MEL-5. The series is described as follows: SRB cytotoxicity screening assay (Melanoma).
In the next series the test system is MAXF 401. As to the kind of experiment: SRB cytotoxicity screening assay (Breast Cancer). It counts as cell-based. To be noted: MAXF 401 (Breast Cancer), 48 hour incubation.
Another series concerns SF-268. As to the kind of experiment: SRB cytotoxicity screening assay (CNS Cancer).
A further series has as its system NCI-H23. The series is described as follows: SRB cytotoxicity screening assay (Non-Small Cell Lung Cancer).
A further series relates to MDA-N. The series is described as follows: SRB cytotoxicity screening assay (Breast Cancer).
In the next series the test system is SNB-75. The series is described as follows: SRB cytotoxicity screening assay (CNS Cancer).
The next series deals with SK-OV-3. The series is described as follows: SRB cytotoxicity screening assay (Ovarian).
Another series concerns MDA-MB-468. The series is described as follows: SRB cytotoxicity screening assay (Breast Cancer).
A further series concerns MDR+ cell line. The series is described as follows: Multidrug resistant cell line screening (MDR ratio). Format: cell-based. The text has this: The compound of the present invention was further tested on multidrug resistant cell lines. The resistance of cancer cells to multiple chemotherapeutic drugs which are structurally unrelated has been termed “multidrug resistance.” In the past several years, several mechanisms of multidrug resistance have been described, including the expression of a cell surface multidrug efflux pump (P-glycoprotein or the multidrug transporter), altered glutathione metabolism, reduced activity of topoisomerase II, and various less clearly defined changes in cellular proteins. Because of evidence that expression of P-glycoprotein is associated with drug-resistance in cancer, P-glycoprotein has been studied extensively from the point of view of its biochemistry and mechanism of action in order to develop inhibitors which can be used clinically to reverse drug resistance of cancers in patients. The clinical significance of the other mechanisms of multidrug resistance are less well-established, but many model systems indicate that they may contribute to clinical resistance.

The next series deals with SK-BR-3. As to the kind of experiment: SRB cytotoxicity screening assay (Breast Cancer).
Series [1] has as its system cell line panel (60 lines, nine disease-related subpanels).
Another series has as its system CCRF-CEM. To be noted: human, 48 h.

For `CCCCCC(=O)O[C@H]1C[C@H]2OC[C@@]2(OC(C)=O)[C@H]2[C@H](OC(=O)c3ccccc3)[C@]3(O)C[C@H](OC(=O)[C@H](O)[C@@H](NC(=O)c4ccccc4)c4ccccc4)C(C)=C([C@@H](OC(C)=O)C(=O)[C@]12C)C3(C)C` [7-hexanoyltaxol], the GI50 in the series with SF-295 (Homo sapiens, SF-295, 48 h, read-out: Log10 GI50 (converted)) was less than 0.01 µM; with ACHN (Homo sapiens, ACHN, 48 h, read-out: Log10 GI50 (converted)) it was 0.0955 µM; in the series with MDA-MB-435 (Homo sapiens, MDA-MB-435, 48 h, read-out: Log10 GI50 (converted)), less than 0.01 µM; in the series on SK-MEL-5 (Homo sapiens, SK-MEL-5, 48 h, read-out: Log10 GI50 (converted)), less than 0.01 µM; in the series on MAXF 401 (Homo sapiens, MAXF401, PG=+50, read-out: Log10 GI50 (converted)), less than 0.01 µM; in the series on SF-268 (Homo sapiens, SF-268, 48 h, read-out: Log10 GI50 (converted)), less than 0.01 µM. Also, the GI50 with NCI-H23 (Homo sapiens, NCI-H23, 48 h, read-out: Log10 GI50 (converted)) is less than 0.01 µM; in the series on MDA-N (Homo sapiens, MDA-N, 48 h, read-out: Log10 GI50 (converted)), less than 0.01 µM; in the series on SNB-75 (Homo sapiens, SNB-75, 48 h, read-out: Log10 GI50 (converted)), less than 0.01 µM; in the series with SK-OV-3 (Homo sapiens, SK-OV-3, 48 h, read-out: Log10 GI50 (converted)), less than 0.01 µM; in the series with MDA-MB-468 (Homo sapiens, MDA-MB-468, 48 h, read-out: Log10 GI50 (converted)), less than 0.01 µM; in the series with SK-BR-3 (Homo sapiens, SK-BR-3, 48 h, read-out: Log10 GI50 (converted)), less than 0.01 µM. Also, the CC50 in the series on SF-295 (Homo sapiens, SF-295, 48 h, read-out: Log10 LC50 (converted)) is greater than 100 µM; in the series with ACHN (Homo sapiens, ACHN, 48 h, read-out: Log10 LC50 (converted)), greater than 100 µM; with MDA-MB-435 (Homo sapiens, MDA-MB-435, 48 h, read-out: Log10 LC50 (converted)) it was less than 0.01 µM; with SK-MEL-5 (Homo sapiens, SK-MEL-5, 48 h, read-out: Log10 LC50 (converted)), greater than 100 µM; with SF-268 (Homo sapiens, SF-268, 48 h, read-out: Log10 LC50 (converted)), greater than 100 µM; in the series on NCI-H23 (Homo sapiens, NCI-H23, 48 h, read-out: Log10 LC50 (converted)), 45.7 µM. In addition, the CC50 with MDA-N (Homo sapiens, MDA-N, 48 h, read-out: Log10 LC50 (converted)) is less than 0.01 µM; in the series on SNB-75 (Homo sapiens, SNB-75, 48 h, read-out: Log10 LC50 (converted)), greater than 100 µM; with SK-OV-3 (Homo sapiens, SK-OV-3, 48 h, read-out: Log10 LC50 (converted)), 91.2 µM; with MDA-MB-468 (Homo sapiens, MDA-MB-468, 48 h, read-out: Log10 LC50 (converted)) it was greater than 100 µM; in the series with SK-BR-3 (Homo sapiens, SK-BR-3, 48 h, read-out: Log10 LC50 (converted)), greater than 100 µM. For the same compound, the “Log10 TGI” value with SF-295 (SF-295 (CNS Cancer), PG=0, 48 hour incubation) is −6.41 molar; in the series with ACHN (ACHN (Renal Cancer), PG=0, 48 hour incubation) it was greater than −4.00 molar; in the series on MDA-MB-435 (MDA-MB-435 (Breast Cancer), PG=0, 48 hour incubation), less than −8.00 molar; with SK-MEL-5 (SK-MEL-5 (Melanoma), PG=0, 48 hour incubation), −4.56 molar; in the series on MAXF 401 (PG=0), less than −8.00 molar; in the series with SF-268 (SF-268 (CNS Cancer), PG=0, 48 hour incubation) it was −4.95 molar. Further, the “Log10 TGI” value with NCI-H23 (NCI-H23 (Non-Small Cell Lung Cancer), PG=0, 48 hour incubation) is −4.86 molar; in the series on MDA-N (MDA-N (Breast Cancer), PG=0, 48 hour incubation), less than −8.00 molar; in the series with SNB-75 (SNB-75 (CNS Cancer), PG=0, 48 hour incubation) it was −7.41 molar; in the series with SK-OV-3 (SK-OV-3 (Ovarian), PG=0, 48 hour incubation), −4.84 molar; in the series on MDA-MB-468 (MDA-MB-468 (Breast Cancer), PG=0, 48 hour incubation), −6.26 molar; in the series on SK-BR-3 (SK-BR-3 (Breast Cancer), PG=0, 48 hour incubation) it was −6.04 molar. Besides, the “MDR (ratio of two IC50 values, numerator is an MDR+ cell line)” value in the series on MDR+ cell line (higher numbers = less effective vs. MDR cells) is given as 1. Also, the “effectiveness against multidrug resistant cell lines compared with paclitaxel” value in the series with MDR+ cell line (multidrug resistant cell lines) is given as “vastly more effective than paclitaxel”.

Take `CC(=O)O[C@H]1C(=O)[C@@]2(C)[C@H]([C@H](OC(=O)c3ccccc3)[C@]3(O)C[C@H](OC(=O)[C@H](O)[C@@H](NC(=O)c4ccccc4)c4ccccc4)C(C)=C1C3(C)C)[C@]1(OC(C)=O)CO[C@@H]1C[C@@H]2O` [Paclitaxel, paclitaxel, reference compound]: the “Log10 LC50, Range” value in series [1] was determined as 0.45. Further, in the series on CCRF-CEM, the “Log10 LC50” value was greater than −4.00 molar.

For orientation: GI50 means the concentration that inhibits growth by half.

Source of the values: US6753345B2, “7-hexanolytaxol and methods for preparing the same” (Hauser, Inc., priority 1998, dated 2004).
